Source: patent publication US9557338B2 (SIGNAL PHARMACEUTICALS, LLC, priority 2012, dated 2017)
Read-outs that look alike come from different tables or passages of the source.

Key:
Assay type in all cases: cell-based
p70S6K = assay: Luminex multiplex assay, p70S6K phosphorylation in cell lysates
GSK-3β = assay: MSD assay, GSK-3β phosphorylation in cell lysates
Phospho-p70S6K (T389) = assay: MSD assay, phospho-p70S6K (T389) in cell lysates
Protocol: Determination of Phospho-p70S6K (T389) in Cell Lysates.
MSD® biomarker detection assays provide a rapid and convenient method for measuring the total and phosphorylated levels of protein targets within a single small-volume sample. In the assay, an antibody for a specific protein target is coated on one electrode (or spot) per well. The samples (cell lysates) are added to the well with a solution containing the detection antibody labeled with an electrochemiluminescent (ECL) compound, MSD SULFOTAG™ label, over the course of one or more incubation periods. The total protein present in the sample binds to the capture antibodies immobilized on the working electrode surface; recruitment of the labeled detection antibody by bound phospho-p70S6K completes the sandwich. MSD Read Buffer that provides the appropriate chemical environment for ECL is added and the plate is read using an MSD SECTOR™ Imager. Inside the SECTOR Imager, a voltage is applied to the plate electrodes which cause the labels bound to the electrode surface to emit light. The instrument measures intensity of the emitted light to afford a quantitative measure of the amount of phosphorylated protein present in the sample.
Cells were plated in 96-well flat bottom plates at the required density determined for each cell line and the cells were allowed to equilibrate at 37° C., 5% CO2 overnight. The following day, the cells were treated with Compound 1 over a range of concentrations for one hour in 5% CO2 at 37° C. After the incubation period, the culture medium was removed carefully with an aspirator. The plate was placed on ice and 50 μL of 1× Tris Lysis Buffer were added to each well. The plate was placed on a shaker at 4° C. for one hour to lyse the cells. At that point, the plate was either frozen at −80° C. for later analysis or immediately assayed for phosphoproteins as described below. To monitor interassay variability, Compound 1 was compared among all plates as a reference standard.
The assay plate was incubated with 150 μL of MSD Blocking Buffer for one hour with shaking at room temperature. The plates were washed 3 times with Tris Wash Buffer. Then 35 μL of cell lysate was added to the wells and incubated for one hour with shaking at room temperature. The solution was removed from the wells and the plate was washed 3 times with wash buffer. Twenty-five microliters of the appropriate antibody solution was then incubated for one hour with shaking at room temperature. The solution was removed from the wells and the plate was washed 3 times with wash buffer. Then 150 μL of 1×MSD Read Buffer T was added to each well. The plate was read on the SECTOR Imager plate reader.

Phospho-PRAS40(T246) = assay: Luminex multiplex assay, Phospho-PRAS40(T246); details: PC3 cell line; read-out: Luminex PRAS40
Summary of the method: (§1)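 Cells (PC3; HCT-116, MDA-MB-231 and HT29 with 500 ng/mL recombinant human IGF-I for the final 10 min) treated with compound or rapamycin over a concentration range for 1 h at 37° C, 5% CO2. Lysates read by bead-based Luminex sandwich immunoassay, 3 h at room temperature, RPE anti-rabbit detection, quantified against phosphoprotein standard curves.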

Phospho-GSK3β(S9) = assay: Luminex multiplex assay, Phospho-GSK3β(S9); details: PC3 cell line; read-out: Luminex GSK-3β
Summary of the method: as §1

Phospho-4E-BP1(T46) = assay: Luminex multiplex assay, Phospho-4E-BP1(T46); details: not inhibited up to concentrations tested; read-out: inhibition of 4E-BP1(T46) phosphorylation
Description: Determination of Phospho-GSK3β(S9), Phospho-PRAS40(T246) and Phospho-4E-BP1(T46) and the Effect of Compound 1 or Rapamycin.
The multiplex Luminex assay format differs from conventional enzyme-linked immunosorbent assay (ELISA) in that the multiplex capture antibody is attached to a polystyrene bead whereas the ELISA capture antibody is attached to the microplate well. The use of the suspension bead-based technology enables the multiplexing capabilities of the Luminex assays. The xMAP® technology uses 5.6 micron polystyrene microspheres, which are internally dyed with red and infrared fluorophores of differing intensities. Each bead is given a unique number, or bead region, allowing differentiation of one bead from another. Beads covalently bound to different specific antibodies can be mixed in the same assay, utilizing a 96-well microplate format. At the completion of the sandwich immunoassay, beads can be read, using the Luminex 100™ or Luminex 200 detection system, in single-file by dual lasers for classification and quantification of each analyte. The Akt-Pathway Phospho 5-plex kit used was custom made and includes the ability to simultaneously measure p-GSK3β (S9), p-PRAS40(T246), and p-4E-BP1(T46).
Cells were plated at the required density. The cells were treated with either Compound 1 or rapamycin over a range of concentrations for 1 hour in 5% CO2 at 37° C. Compound 1 and rapamycin were used at the same concentrations as for the proliferation assay. As for the cell proliferation assay, a reference standard was included in the assay for PC3 cells and the coefficient of variation for assay of p-GSK3β(S9) was 37.8% (n=30), p-PRAS40(T246) was 27.8% (n=30) and for p4E-BP1(T46) was 13.5% (n=4). For three cell lines (HCT-116, MDA-MB-231 and HT29) in the assay for phosphorylation of GSK3β, PRAS40 and 4E-BP1, IGF-I stimulation (500 ng/mL, recombinant human IGF-I) for the last 10 min of incubation was used. The media was aspirated from the wells and the plate was placed on ice. Then 35 μL of Lysis Buffer was added to each well and incubated on ice for at least 30 minutes. During the incubation, the standard curve for each phosphoprotein was prepared. The standards provided were reconstituted and serial dilutions were prepared according to the manufacturer's instructions. At the end of the cell lysis step, […] of the lysate was transferred to a V-bottom plate and spun at 4° C. at 2000 rpm for 5 minutes. Both the 1× Luminex bead and 1× detector antibody solutions were prepared during this time. The 1× bead solution was vortexed and 25 μL was added into each well of a black round bottom plate. Then 50 μL of the 1× detector antibody was added to each well. Fifty microliters (50 μL) of the prepared standards were added to the designated wells. Then 25 μL of the assay diluent was added to each well designated for the compound-treated cell lysates. At the end of the spin, 25 μL of cell lysate was added to the corresponding wells of the black assay plate. The assay plate was covered with the white plate lid and incubated for 3 hours at room temperature on an orbital shaker.
Approximately 10-15 minutes prior to the end of the first incubation, the secondary antibody solution was prepared according to the vendor's protocol. Goat anti-rabbit R-phycoerythrin red fluorescent protein (RPE) supplied as a 10× concentrate was diluted to generate a 1× goat anti-rabbit RPE stock. The 96-well filter plate was pre-wet with 200 μL of 1× Working wash solution. At the end of the 3 hour incubation, a multichannel pipette was used to transfer the entire contents from each assay well into the wells of the filter plate. The liquid from the wells was removed by aspiration with the vacuum manifold. Then 200 μL of 1× Working wash solution was added into each well. The wash solution was aspirated using the vacuum manifold after 15-30 seconds. This wash step was repeated one time. The bottom of the plate was blotted on clean paper towels to remove residual liquid. […]

S6RP(S235/S236) = assay: Inhibition of S6RP(S235/S236) phosphorylation in cell lines; details: Homo sapiens, read-out: IC50 for inhibition of S6RP(S235/S236) phosphorylation
Akt(S473) = assay: Inhibition of Akt(S473) phosphorylation in cell lines; details: data not shown
[1] = PC3 cell line, read-out: Luminex p70S6K
[2] = PC3 cell line, read-out: MSD GSK-3β
[3] = PC3 cell line, read-out: MSD p70S6K

| Structure (SMILES) | IC50 (Phospho-PRAS40(T246)) [nM] | IC50 (p70S6K; [1]) [nM] | IC50 (GSK-3β; [2]) [nM] | IC50 (Phospho-GSK3β(S9)) [nM] | IC50 (Phospho-p70S6K (T389); [3]) [nM] | other results |
| --- | --- | --- | --- | --- | --- | --- |
| COCCN1C(=O)CNc2ncc(-c3ccc(-c4nnc[nH]4)nc3C)nc21 [A-9, 1-(2-methoxyethyl)-7-(2-methyl-6-(4H-1,2,4-triazol-3-yl)pyridin-3-yl)-3,4-dihydropyrazino[2,3-b]pyrazin-2(1H)-one] | – | – | – | – | – | IC50 (p70S6K; Homo sapiens, HCT-116, HCT116 cell line, IGF, read-out: Luminex p70S6K (IGF)): 103 nM; IC50 (p70S6K; Homo sapiens, U-87 MG, U87MG cell line, read-out: Luminex p70S6K): 37.7 nM; IC50 (GSK-3β; Homo sapiens, HCT-116, HCT116 cell line, IGF, read-out: MSD GSK-3β (IGF)): > 2000 nM; IC50 (GSK-3β; Homo sapiens, U-87 MG, U87MG cell line, read-out: MSD GSK-3β): > 2000 nM; IC50 (Phospho-p70S6K (T389); Homo sapiens, HCT-116, HCT116 cell line, IGF, read-out: MSD p70S6K (IGF)): 846 nM; IC50 (Phospho-p70S6K (T389); Homo sapiens, U-87 MG, U87MG cell line, read-out: MSD p70S6K): 268 nM |
| O=c1[nH]c2ncc(-c3ccc(-c4nc[nH]n4)cc3)nc2n1CCC1CCOCC1 [C-2] | 180 | 30 | > 1500 | 255 | 46 | – |
| Cc1nc(-c2nnc[nH]2)ccc1-c1cnc2c(n1)N(CCC1CCOCC1)C(=O)CN2 [C-9] | 37 | – | 213 | 43 | 4 | – |
| CCn1c(=O)[nH]c2ncc(-c3ccc(-c4ncn[nH]4)c(F)c3C)nc21 [C-12] | 1120 | 79 | > 5000 | 936 | 436 | – |
| COCCN1C(=O)CNc2ncc(-c3ccc(-c4nnc[nH]4)nc3C)nc21 [C-14] | 61 | – | 366 | 366 | 31 | – |
| COC1CCC(N2C(=O)CNc3ncc(-c4ccc(C(C)(C)O)nc4)nc32)CC1 (centres unmarked) [C-15] | 96 | 32 | > 500 | 240 | 82 | – |
| COC1CCC(N2C(=O)CNc3ncc(-c4ccc(-c5nnc[nH]5)nc4C)nc32)CC1 (centres unmarked) [C-16] | 43 | 3 | 152 | 141 | 13 | – |
| CCN1C(=O)CNc2ncc(-c3ccc(-c4nnc[nH]4)nc3C)nc21 [C-54] | 39 | 13 | 181 | 370 | 31 | – |
| Cc1nc(-c2nnc[nH]2)ccc1-c1cnc2c(n1)N(C(C)C)C(=O)CN2 [C-69] | 285 | – | 394 | 342 | 80 | – |
| COC1CCC(N2C(=O)CNc3ncc(-c4cnc(-c5ncn[nH]5)cc4C)nc32)CC1 (centres unmarked) [C-93] | – | – | > 1.5 | 2 | 1 | – |
| CCN1C(=O)CNc2ncc(-c3cnc4[nH]ccc4c3)nc21 [C-103] | 696 | 150 | > 500 | 153 | > 500 | – |
| CO[C@H]1CC[C@@H](CN2CC(=O)Nc3ncc(-c4cc(F)c(-c5nc[nH]n5)cc4C)nc32)CC1 [C-160] | – | – | > 500 | – | < 1.5 | – |
| O=C1CNc2ncc(-c3ccnc4[nH]ccc34)nc2N1CCC1CCOCC1 [C-161] | – | – | 2790 | – | 385 | – |
| CO[C@H]1C[C@@H]2CC[C@@H](C)[C@@](O)(O2)C(=O)C(=O)N2CCCC[C@H]2C(=O)O[C@H]([C@H](C)C[C@@H]2CC[C@@H](O)[C@H](OC)C2)CC(=O)[C@H](C)/C=C(\C)[C@@H](O)[C@@H](OC)C(=O)[C@H](C)C[C@H](C)/C=C/C=C/C=C/1C [rapamycin, reference compound] | – | – | – | – | – | IC50 (Phospho-4E-BP1(T46)): > 10000 nM; IC50 (S6RP(S235/S236); HCT-116, HCT116 cell line): 0.029 nM; IC50 (S6RP(S235/S236); PC-3, PC3 cell line): 0.019 nM; inhibition of the phosphorylation of Akt(S473) (Akt(S473)): did not inhibit |

Now from value to compound, other results behind:

| IC50 (Phospho-PRAS40(T246)) [nM] | IC50 (p70S6K; [1]) [nM] | IC50 (GSK-3β; [2]) [nM] | IC50 (Phospho-GSK3β(S9)) [nM] | IC50 (Phospho-p70S6K (T389); [3]) [nM] | Structure (SMILES) | other results |
| --- | --- | --- | --- | --- | --- | --- |
| – | – | > 5000 | – | 4750 | O=C1CNc2ncc(-c3cccc4[nH]cnc34)nc2N1CCC1CCOCC1 [C-162] | – |
| – | – | > 500 | – | > 500 | COC1CCC(CN2CC(=O)Nc3ncc(-c4cc(F)c(-c5nc[nH]n5)cc4C)nc32)CC1 (centres unmarked) [C-163] | – |
| – | – | 275 | – | 1 | Cc1cc(-c2nc[nH]n2)ncc1-c1cnc2c(n1)N(CC1CCOCC1)CC(=O)N2 [C-164] | – |
| – | – | > 500 | – | > 500 | CCN1C(=O)CNc2ncc(-c3ccc4[nH]ccc4n3)nc21 [C-166] | – |
| – | – | < 1.5 | – | < 1.5 | COC1CCC(CN2C(=O)CNc3ncc(-c4cc(F)c(-c5nc[nH]n5)cc4C)nc32)CC1 (centres unmarked) [C-167] | – |
| – | – | 2820 | – | 419 | O=C1CN(CCC2CCOCC2)c2nc(-c3c[nH]c4ncccc34)cnc2N1 [C-169] | – |
